Experimental data from patent US20250066344A1 (BRISTOL-MYERS SQUIBB COMPANY, priority 2021, published 2025).

Target: T1, human RXFP1 (Homo sapiens, UniProt Q9HBX9)
T1 construct: expressed in transfected cells
T1 sequence (Q9HBX9 1-757): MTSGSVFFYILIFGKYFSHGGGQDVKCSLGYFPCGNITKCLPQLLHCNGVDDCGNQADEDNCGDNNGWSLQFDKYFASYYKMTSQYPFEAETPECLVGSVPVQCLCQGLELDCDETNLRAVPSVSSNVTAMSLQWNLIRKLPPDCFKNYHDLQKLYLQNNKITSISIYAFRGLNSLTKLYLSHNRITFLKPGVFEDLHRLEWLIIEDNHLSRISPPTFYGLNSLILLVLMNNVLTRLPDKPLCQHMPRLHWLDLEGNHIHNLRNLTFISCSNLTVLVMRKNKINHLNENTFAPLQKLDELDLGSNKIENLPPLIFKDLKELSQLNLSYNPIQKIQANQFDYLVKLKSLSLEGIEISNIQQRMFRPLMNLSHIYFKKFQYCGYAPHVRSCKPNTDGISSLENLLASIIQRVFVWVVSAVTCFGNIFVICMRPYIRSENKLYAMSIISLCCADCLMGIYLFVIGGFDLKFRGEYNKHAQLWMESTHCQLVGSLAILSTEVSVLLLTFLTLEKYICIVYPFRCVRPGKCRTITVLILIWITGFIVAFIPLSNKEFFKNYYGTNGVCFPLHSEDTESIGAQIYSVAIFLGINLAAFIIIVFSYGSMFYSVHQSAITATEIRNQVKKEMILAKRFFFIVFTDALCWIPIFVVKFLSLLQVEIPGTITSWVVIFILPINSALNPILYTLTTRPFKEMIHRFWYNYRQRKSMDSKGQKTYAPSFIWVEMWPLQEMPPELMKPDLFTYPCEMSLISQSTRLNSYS
Experiment: RXFP1 cyclic adenosine monophosphate (cAMP) assay, hRXFP1 HEK293
Format: cell-based
Conditions: HEK293 cells stably expressing human RXFP1; 30 min at room temperature; HTRF cAMP
Procedure, shortened: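 HEK293 cells stably expressing human RXFP1 were exposed to compounds (0.010 nM–50 μM, 2% DMSO) for 30 min at room temperature in HBSS/HEPES buffer with 0.5 mM IBMX. Intracellular cAMP was measured by HTRF against a cAMP standard curve; EC50 from 4-parameter logistic fit.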

| EC50 | SMILES |
| --- | --- |
| 6 nM | COc1ccc(C2=NOC3CN(CC(C)(C)O)CC23)cc1C(=O)Nc1cc2c(cc1C(=O)Nc1ccc(F)c(C(F)(F)F)c1)OC(F)(F)O2 (stereo not shown) [Example 45, 2,2-difluoro-N-(4-fluoro-3-(trifluoromethyl)phenyl)-6-(5-(5-(2-hydroxy-2-methylpropyl)-3a,5,6,6a-tetrahydro-4H-pyrrolo[3,4-d]isoxazol-3-yl)-2-methoxybenzamido)benzo[d][1,3]dioxole-5-carboxamide] |
| 85 nM | COc1ccc(-c2cc(C(=O)NS(C)(=O)=O)ccc2F)cc1C(=O)Nc1cc2c(cc1C(=O)Nc1ccc(F)c(C(F)(F)F)c1)OC(F)(F)O2 [Example 47, N3-(2,2-difluoro-6-((4-fluoro-3-(trifluoromethyl)phenyl)carbamoyl)benzo[d][1,3]dioxol-5-yl)-6′-fluoro-4-methoxy-N3′-(methylsulfonyl)-[1,1′-biphenyl]-3,3′-dicarboxamide] |
| 196 nM | COc1ccc(-c2cc(C(=O)Nc3cc[nH]n3)ccc2F)cc1C(=O)Nc1cc2c(cc1C(=O)Nc1ccc(F)c(C(F)(F)F)c1)OC(F)(F)O2 [Example 48] |
| 21 nM | COc1ccc(C2=NOC3CC(NC(=O)CO)CC23)cc1C(=O)Nc1cc2c(cc1C(=O)Nc1ccc(F)c(C(F)(F)F)c1)OC(F)(F)O2 (stereo not shown) [Example 51, 2,2-difluoro-N-(4-fluoro-3-(trifluoromethyl)phenyl)-6-(5-(5-(2-hydroxyacetamido)-3a,5,6,6a-tetrahydro-4H-cyclopenta[d]isoxazol-3-yl)-2-methoxybenzamido)benzo[d][1,3]dioxole-5-carboxamide] |
| 683 nM | COc1ccc(-c2nc3c(s2)CNCC3)cc1C(=O)Nc1cc2c(cc1C(=O)Nc1ccc(F)c(C(F)(F)F)c1)OC(F)(F)O2 [Example 52, 2,2-difluoro-N-(4-fluoro-3-(trifluoromethyl)phenyl)-6-(2-methoxy-5-(4,5,6,7-tetrahydrothiazolo[5,4-c]pyridin-2-yl)benzamido)benzo[d][1,3]dioxole-5-carboxamide] |
| 33 nM | COc1ccc(-c2nc3c(s2)CN(CC(N)=O)CC3)cc1C(=O)Nc1cc2c(cc1C(=O)Nc1ccc(F)c(C(F)(F)F)c1)OC(F)(F)O2 [Example 53, 6-(5-(5-(2-amino-2-oxoethyl)-4,5,6,7-tetrahydrothiazolo[5,4-c]pyridin-2-yl)-2-methoxybenzamido)-2,2-difluoro-N-(4-fluoro-3-(trifluoromethyl)phenyl)benzo[d][1,3]dioxole-5-carboxamide] |
| 125 nM | COc1ccc(-c2cc(C(=O)O)ccc2F)cc1C(=O)Nc1cc2c(cc1C(=O)Nc1ccc(F)c(C(F)(F)F)c1)OC(F)(F)O2 [Example 57, 3′-((2,2-difluoro-6-((4-fluoro-3-(trifluoromethyl)phenyl)carbamoyl)benzo[d][1,3]dioxol-5-yl)carbamoyl)-6-fluoro-4′-methoxy-[1,1′-biphenyl]-3-carboxylic acid] |
| 1060 nM | COc1ccc(C#CC(C)(C)O)cc1C(=O)Nc1cc2c(cc1C(=O)Nc1ccc(F)c(C(F)(F)F)c1)OC(F)(F)O2 [Example 58, 2,2-difluoro-N-(4-fluoro-3-(trifluoromethyl)phenyl)-6-(5-(3-hydroxy-3-methylbut-1-yn-1-yl)-2-methoxybenzamido) benzo[d][1,3]dioxole-5-carboxamide] |
| 41 nM | COc1ccc(C#CCO)cc1C(=O)Nc1cc2c(cc1C(=O)Nc1ccc(F)c(C(F)(F)F)c1)OC(F)(F)O2 [Example 59, 2,2-difluoro-N-(4-fluoro-3-(trifluoromethyl)phenyl)-6-(5-(3-hydroxyprop-1-yn-1-yl)-2-methoxybenzamido) benzo[d][1,3]dioxole-5-carboxamide] |
| 646 nM | COc1ccc(-c2cnc3n2CCNC3)cc1C(=O)Nc1cc2c(cc1C(=O)Nc1ccc(F)c(C(F)(F)F)c1)OC(F)(F)O2 [Example 62, 2,2-difluoro-N-(4-fluoro-3-(trifluoromethyl)phenyl)-6-(2-methoxy-5-(5,6,7,8-tetrahydroimidazo[1,2-a]pyrazin-3-yl)benzamido)benzo[d] [1,3]dioxole-5-carboxamide] |
| 37 nM | COc1ccc(-c2cc(S(=O)(=O)NC(C)(C)C)ccc2F)cc1C(=O)Nc1cc2c(cc1C(=O)Nc1ccc(F)c(C(F)(F)F)c1)OC(F)(F)O2 [Example 64, 6-(5′-(N-(tert-butyl)sulfamoyl)-2′-fluoro-4-methoxy-{1,1′-biphenyl]-3-carboxamido)-2,2-difluoro-N-(4-fluoro-3-(trifluoromethyl)phenyl) benzo[d][1,3]dioxole-5-carboxamide] |
| 285 nM | COc1ccc(C2=NOC3CS(=O)(=O)CC23)cc1C(=O)Nc1cc2c(cc1C(=O)Nc1ccc(F)c(C(F)(F)F)c1)OC(F)(F)O2 (stereo not shown) [Example 65, 6-(5-(5,5-dioxido-3a,4,6,6a-tetrahydrothieno[3,4-d]isoxazol-3-yl)-2-methoxybenzamido)-2,2-difluoro-N-(4-fluoro-3-(trifluoromethyl)phenyl) benzo[d][1,3]dioxole-5-carboxamide] |
| 338 nM | COc1ccc(C2=NOC3(CCNC3)C2)cc1C(=O)Nc1cc2c(cc1C(=O)Nc1ccc(F)c(C(F)(F)F)c1)OC(F)(F)O2 (stereo not shown) [Example 66, 2,2-difluoro-N-(4-fluoro-3-(trifluoromethyl)phenyl)-6-(2-methoxy-5-(1-oxa-2,7-diazaspiro[4.4]non-2-en-3-yl)benzamido)benzo[d] [1,3]dioxole-5-carboxamide] |
| 309 nM | COc1ccc(C2=NOC3(CCNCC3)C2)cc1C(=O)Nc1cc2c(cc1C(=O)Nc1ccc(F)c(C(F)(F)F)c1)OC(F)(F)O2 [Example 67, 2,2-difluoro-N-(4-fluoro-3-(trifluoromethyl)phenyl)-6-(2-methoxy-5-(1-oxa-2,8-diazaspiro[4.5]dec-2-en-3-yl)benzamido)benzo[d] [1,3]dioxole-5-carboxamide] |
| 173 nM | COc1ccc(C2=NOC3(CCN(C(=O)CO)CC3)C2)cc1C(=O)Nc1cc2c(cc1C(=O)Nc1ccc(F)c(C(F)(F)F)c1)OC(F)(F)O2 [Example 68, 2,2-difluoro-N-(4-fluoro-3-(trifluoromethyl)phenyl)-6-(5-(8-(2-hydroxyacetyl)-1-oxa-2,8-diazaspiro[4.5]dec-2-en-3-yl)-2-methoxybenzamido) benzo[d][1,3]dioxole-5-carboxamide] |
| 42 nM | COc1ccc(C2=NOC3(CCN(CC(N)=O)CC3)C2)cc1C(=O)Nc1cc2c(cc1C(=O)Nc1ccc(F)c(C(F)(F)F)c1)OC(F)(F)O2 [Example 69, 6-(5-(8-(2-amino-2-oxoethyl)-1-oxa-2,8-diazaspiro[4.5]dec-2-en-3-yl)-2-methoxybenzamido)-2,2-difluoro-N-(4-fluoro-3-(trifluoromethyl)phenyl) benzo[d][1,3]dioxole-5-carboxamide] |
| 132 nM | COc1ccc(-c2cncc(S(=O)(=O)NC(C)(C)C)c2)cc1C(=O)Nc1cc2c(cc1C(=O)Nc1ccc(F)c(C(F)(F)F)c1)OC(F)(F)O2 [Example 70, 6-(5-(5-(N-(tert-butyl)sulfamoyl)pyridin-3-yl)-2-methoxybenzamido)-2,2-difluoro-N-(4-fluoro-3-(trifluoromethyl)phenyl) benzo[d][1,3]dioxole-5-carboxamide] |
| 96 nM | COc1ccc(-c2cc([C@H](C)O)on2)cc1C(=O)Nc1cc2c(cc1C(=O)Nc1ccc(F)c(C(F)(F)F)c1)OC(F)(F)O2 [Example 73, (S)-2,2-difluoro-N-(4-fluoro-3-(trifluoromethyl)phenyl)-6-(5-(5-(1-hydroxyethyl)isoxazol-3-yl)-2-methoxybenzamido) benzo[d][1,3]dioxole-5-carboxamide] |
| 127 nM | COc1ccc(-c2cc(C(C)(C)O)on2)cc1C(=O)Nc1cc2c(cc1C(=O)Nc1ccc(F)c(C(F)(F)F)c1)OC(F)(F)O2 [Example 74] |
| 231 nM | COc1ccc(C2=NOC3(C2)CN(C(=O)CO)C3)cc1C(=O)Nc1cc2c(cc1C(=O)Nc1ccc(F)c(C(F)(F)F)c1)OC(F)(F)O2 [Example 75, 2,2-difluoro-N-(4-fluoro-3-(trifluoromethyl)phenyl)-6-(5-(2-(2-hydroxyacetyl)-5-oxa-2,6-diazaspiro[3.4]oct-6-en-7-yl)-2-methoxybenzamido) benzo[d][1,3]dioxole-5-carboxamide] |
| 262 nM | COc1ccc(C2=NOC3(COC(=O)C3)C2)cc1C(=O)Nc1cc2c(cc1C(=O)Nc1ccc(F)c(C(F)(F)F)c1)OC(F)(F)O2 (stereo not shown) [Example 78, 2,2-difluoro-N-(4-fluoro-3-(trifluoromethyl)phenyl)-6-(2-methoxy-5-(8-oxo-1,7-dioxa-2-azaspiro[4.4]non-2-en-3-yl)benzamido)benzo[d] [1,3]dioxole-5-carboxamide] |
| 275 nM | COc1ccc(C2=NOC3COCC23)cc1C(=O)Nc1cc2c(cc1C(=O)Nc1ccc(F)c(C(F)(F)F)c1)OC(F)(F)O2 (stereo not shown) [Example 79] |
